Experimental data taken from patent US20240180881A1, “METHODS FOR DECREASING RESISTANCE TO CHEMOTHERAPY” (National Institute of Immunology, priority 2022, published 2024).
Counter-ions that a name gives are not always drawn. Like-named read-outs stand apart in the source and are kept apart here.

Tests used:
Assay type in all cases: cell-based
[1] = target: T1, BLM-RAD54 interaction (BLM F2 and N-RAD54 F1) (Homo sapiens, UniProt Q92698); assay: Renilla luciferase-based protein complementation assay (PCA)
T1 construct: expressed in transfected cells; host or cells: HEK293T
T1 sequence (Q92698 1-212): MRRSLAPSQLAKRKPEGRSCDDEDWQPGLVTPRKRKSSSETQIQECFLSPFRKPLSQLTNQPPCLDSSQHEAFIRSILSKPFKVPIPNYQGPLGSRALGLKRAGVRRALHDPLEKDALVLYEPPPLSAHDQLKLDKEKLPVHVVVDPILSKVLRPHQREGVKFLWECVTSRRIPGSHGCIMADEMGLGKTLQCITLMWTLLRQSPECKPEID
Protocol: Specifically, N-RAD54-F1, C-RAD54-F1, BLM-F1 and BLM-F2 were transfected in HEK293T. Forty-eight hours post-transfection, Renilla luciferase-based PCA were carried out with the indicated combination of the expressed proteins. The experiment was repeated three times. Mean±S.D.
Using the Renilla luciferase-based protein complementation assay described earlier, 1280 FDA/EMA approved small molecules present in Prestwick chemical library were screened for their ability to disrupt BLM-RAD54 interaction. Each of the small molecules was incubated with HEK293T cells expressing BLM-F2 and N-RAD54-F1. Compared to cells expressing only BLM-F2 and N-RAD54-F1, the decrease in Renilla luciferase intensity in presence of each small molecule was monitored. Percentage disruption of the interaction between BLM F2 and N-RAD54 F1 was plotted in form of heatmap. The disruption of the BLM-RAD54 interaction was determined by a decrease in the Renilla luciferase activity as compared to control untreated cells.
The percentage disruption of the interaction between BLM F2 and N-RAD54 F1 was plotted as a non-linear regression line. The data was from three independent experiments.
Renilla Luciferase (Rlu) based Protein complementation assay was carried out as described in (Stefan et al., 2007). For preliminary screening of the Prestwick Chemical Library (containing 1280 FDA/EMA approved small molecules), HEK293T cells were seeded in the 6-well plates a day prior to the transfection. Next day the cells were transfected by 2 μg each of pcDNA3.1 N-RAD54 F1, pcDNA3.1 C-RAD54 F1, pcDNA3.1 BLM F1, pcDNA3.1 BLM F2 plasmids (alone or in different combinations) using Lipofectamine 2000 (according to the manufacturer's protocol). 36 hours post-transfection, approximately […] cells were seeded in a 96-well plate and incubated at 37° C. for 2 hour with or without 10 μM of the 1280 small molecules present in the library. 10 μM of Coenleterazine h was added into each well and Rluc activity was monitored for the first 10 seconds in Varioskan Microplate Reader (Thermo Fisher Scientific). The validation screen was performed with 17 small molecules at 100 μM, 10 μM, 1 μM, 100 nM, 10 nM and 1 nM concentrations. The percentage reduction in the protein-protein interaction was then calculated as compared to the control wells (without any small molecule).

[2] = tested on: HCT116 IC60 CPTR cells; assay: MTT assay, CPT gradient with or without disruptor; settings: Homo sapiens, HCT-116, CPT gradient alone, 72 hours, read-out: EC50 (μM), HCT116 WT CPT^R
Protocol: (§1) The three resistant lines and their wildtype counterpart HCT116 were exposed to a gradient of CPT, CDDP or 1-OHP.
(§2) Concentrations of CPT used: 0.140 nM, 20 nM, 50 nM, 1000 nM. Concentration of 1-OHP: 0.14 μM, 2 μM, 4 μM, 6 μM, 8 μM. Concentrations of CDDP used: 0.140 μM, 2 μM, 5 μM, 10 μM. The percentage of viable cells were determined by MTT assays (FIG. 12A-12C). The data in FIG. 12A and FIG. 12C is from three independent experiments and the data in FIG. 12B is from nine independent experiments. […] The levels of MRP2, MRP3, MRP5, MXR were quantitated from three independent experiments. […] Specifically, HCT116 IC60 CPTR cells were transfected with the HR substrate for 72 hours and the levels of HR was determined (FIG. 6A). The data is from three independent experiments. […] The number of soft agar colonies in each condition were counted. The data is from three independent experiments.
To generate camptothecin and cisplatin resistant cells (named as HCT116 IC60 CPT^R, HCT116 IC60 CDDP^R respectively), HCT116 wild type were seeded in a 10 cm dish to a confluency of 80%. The IC20 concentrations of cisplatin (3.38 μM) and camptothecin (12.6 nM) was added for 2 hours and 6 hours, respectively. […] Resistant index was calculated using the following formula: Resistant index=IC60 of the resistant cells/IC60 of the parental cells. […]

[3] = tested on: HCT116 WT cells; assay: MTT assay, chemotherapeutic drug gradient with or without disruptor
Protocol: as §1, §2
To generate camptothecin and cisplatin resistant cells (named as HCT116 IC60 CPT^R, HCT116 IC60 CDDP^R respectively), HCT116 wild type were seeded in a 10 cm dish to a confluency of 80%. The IC20 concentrations of cisplatin (3.38 μM) and camptothecin (12.6 nM) was added for 2 hours and 6 hours, respectively. Post treatment, the cells were washed twice with 1×PBS and fresh media was added. After every 48 hours, the media was changed and IC20 concentration of the drugs were added only if the confluency of cells was at least 80%. […] Resistant index was calculated using the following formula: Resistant index=IC60 of the resistant cells/IC60 of the parental cells.
Cells were seeded in a 96-well plate overnight. Next day, the culturing media was replaced with Optimem media, followed by incubation with BLM_CPP or SCM_CPP for 1 hr. The final concentrations of the peptides were 450 nM for cisplatin (CDDP) and 180 nM (for all other drugs). […] Post treatment, the cells were washed with 1×PBS and fresh media was added. After 72 hours, MTT assay was carried out to determine the percentage cell viability of the cells with respect to the untreated cells.

[4] = disruption of BLM F2 / N-RAD54 F1 interaction, HEK293T cells, 1 nM to 100 μM, read-out: EC50
[5] = HCT116, used to generate resistant cells

## NC(=O)NC1NC(=O)NC1=O (centres unmarked) [C2, Allantoin]
[1]; [4]
  EC50: 17.9 ± 1.82 nM

## Cc1cnc(C(=O)NCCc2ccc(S(=O)(=O)NC(=O)NC3CCCCC3)cc2)cn1 [C13, Glipizide]
[1]; [4]
  EC50: 6.75 ± 3.69 nM

## CC[C@@]1(O)C(=O)OCc2c1cc1n(c2=O)Cc2cc3ccccc3nc2-1 [CPT, camptothecin]
[2]
  EC50: 0.354 ± 0.00561 µM
[3]; [5]
  IC40 concentration: 30.8 nM
  IC60 concentration: 92.6 nM
[3]; Homo sapiens, HCT-116, CPT gradient alone, MTT, 72 hours, read-out: EC50 (μM), HCT116 WT
  EC50: 0.043 ± 0.0037 µM
[3]; Homo sapiens, HCT-116, HCT116 wild type, used to generate resistant cells, read-out: IC20 concentration
  IC20: 12.6 nM

## CC(C)CC1C(=O)N2CCC[C@H]2[C@]2(O)O[C@](NC(=O)[C@@H]3C=C4c5cccc6[nH]c(Br)c(c56)C[C@H]4N(C)C3)(C(C)C)C(=O)N12 (some centres unmarked) [C12, Bromocryptine mesylate]
[1]
  EC50: 41.4 ± 4.46 nM

## Nc1nc2nn[nH]c2c(=O)[nH]1 [C1, Azaguanine-8]
[1]; [4]
  EC50: 22.3 ± 1.98 nM

## Cc1ncc([N+](=O)[O-])n1CCO [C8, Metronidazole]
[1]; [4]
  EC50: 20.5 ± 2.61 nM

## CC[C@H]1OC(=O)[C@H](C)[C@@H](O[C@H]2C[C@@](C)(OC)[C@@H](O)[C@H](C)O2)[C@H](C)[C@@H](O[C@@H]2O[C@H](C)C[C@H](N(C)C)[C@H]2O)[C@](C)(O)C[C@@H](C)C(=O)[C@H](C)[C@@H](O)[C@]1(C)O [C15, Erythromycin]
[1]; [4]
  EC50: 8.12 ± 3.89 nM
